For one test, the target named is T1, Hexokinase-1 (Homo sapiens, UniProt P19367).
T1 sequence (P19367 whole entry): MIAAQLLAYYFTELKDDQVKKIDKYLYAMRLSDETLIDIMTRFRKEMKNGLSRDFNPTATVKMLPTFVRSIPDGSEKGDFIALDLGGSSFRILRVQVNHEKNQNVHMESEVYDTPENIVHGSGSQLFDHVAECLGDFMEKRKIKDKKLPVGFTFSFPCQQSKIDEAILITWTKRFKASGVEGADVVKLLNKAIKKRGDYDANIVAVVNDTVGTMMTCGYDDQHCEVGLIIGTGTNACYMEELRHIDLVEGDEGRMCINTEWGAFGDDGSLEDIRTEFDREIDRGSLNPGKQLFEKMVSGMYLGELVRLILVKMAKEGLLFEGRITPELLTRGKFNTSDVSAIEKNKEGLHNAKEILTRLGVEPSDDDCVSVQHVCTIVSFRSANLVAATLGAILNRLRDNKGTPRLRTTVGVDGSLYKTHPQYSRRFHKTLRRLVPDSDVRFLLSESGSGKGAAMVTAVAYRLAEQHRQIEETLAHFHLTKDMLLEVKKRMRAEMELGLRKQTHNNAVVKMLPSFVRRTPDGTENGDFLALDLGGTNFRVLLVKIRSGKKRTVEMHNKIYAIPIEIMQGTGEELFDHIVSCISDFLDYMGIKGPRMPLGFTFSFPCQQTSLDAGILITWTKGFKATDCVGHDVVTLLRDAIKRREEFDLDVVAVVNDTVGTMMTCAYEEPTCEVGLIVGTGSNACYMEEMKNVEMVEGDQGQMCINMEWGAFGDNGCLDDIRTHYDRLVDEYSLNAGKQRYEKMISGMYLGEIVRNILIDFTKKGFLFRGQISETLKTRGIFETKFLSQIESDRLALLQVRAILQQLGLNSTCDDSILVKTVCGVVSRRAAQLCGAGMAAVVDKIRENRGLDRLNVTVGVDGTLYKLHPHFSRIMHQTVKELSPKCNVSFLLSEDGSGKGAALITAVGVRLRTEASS
Kind of test: SAR analysis of small molecule inhibitors of hexokinase domain containing I (HKDC1) in the hexokinase 1 selectivity assay. [Related pubchem assays (depositor defined):AID493160, AID493190]. The format is functional.

Test [1] deals with T2, Sentrin-specific protease 7 (Homo sapiens, UniProt Q9BQF6).
T2 sequence (Q9BQF6 whole entry): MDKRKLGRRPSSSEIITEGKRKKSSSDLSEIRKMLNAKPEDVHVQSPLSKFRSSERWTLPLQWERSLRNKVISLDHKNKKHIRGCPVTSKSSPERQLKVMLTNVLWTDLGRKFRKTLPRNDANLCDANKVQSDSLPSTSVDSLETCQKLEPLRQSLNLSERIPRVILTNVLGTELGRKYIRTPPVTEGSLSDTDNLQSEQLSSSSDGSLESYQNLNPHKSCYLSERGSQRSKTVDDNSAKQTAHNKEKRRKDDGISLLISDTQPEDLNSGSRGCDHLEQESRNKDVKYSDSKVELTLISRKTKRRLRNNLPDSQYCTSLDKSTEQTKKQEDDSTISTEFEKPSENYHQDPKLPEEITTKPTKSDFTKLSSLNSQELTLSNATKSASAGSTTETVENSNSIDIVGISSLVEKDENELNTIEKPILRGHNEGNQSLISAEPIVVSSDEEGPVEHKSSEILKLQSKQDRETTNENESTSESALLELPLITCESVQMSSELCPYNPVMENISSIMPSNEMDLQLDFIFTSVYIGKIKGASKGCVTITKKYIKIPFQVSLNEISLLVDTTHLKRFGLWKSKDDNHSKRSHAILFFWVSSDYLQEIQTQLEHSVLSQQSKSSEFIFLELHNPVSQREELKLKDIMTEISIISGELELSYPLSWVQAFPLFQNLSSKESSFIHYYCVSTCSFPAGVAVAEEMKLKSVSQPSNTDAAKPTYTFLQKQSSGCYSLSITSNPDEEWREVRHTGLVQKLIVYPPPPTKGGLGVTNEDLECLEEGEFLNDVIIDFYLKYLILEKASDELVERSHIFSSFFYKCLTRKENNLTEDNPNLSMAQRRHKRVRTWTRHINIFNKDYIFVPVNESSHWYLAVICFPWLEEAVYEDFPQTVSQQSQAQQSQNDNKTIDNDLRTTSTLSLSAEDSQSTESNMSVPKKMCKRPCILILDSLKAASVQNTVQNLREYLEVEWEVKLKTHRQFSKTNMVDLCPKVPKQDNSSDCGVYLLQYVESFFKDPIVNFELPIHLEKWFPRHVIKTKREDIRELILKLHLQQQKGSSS
Briefly: SENP7 protease inhibitors, SAR follow-up, biochemical, luminescence, set 2 (AID 588600). The class given is functional.

The target in test [2] is T3, Oxysterols receptor LXR-beta (Homo sapiens, UniProt P55055).
T3 sequence (P55055 whole entry): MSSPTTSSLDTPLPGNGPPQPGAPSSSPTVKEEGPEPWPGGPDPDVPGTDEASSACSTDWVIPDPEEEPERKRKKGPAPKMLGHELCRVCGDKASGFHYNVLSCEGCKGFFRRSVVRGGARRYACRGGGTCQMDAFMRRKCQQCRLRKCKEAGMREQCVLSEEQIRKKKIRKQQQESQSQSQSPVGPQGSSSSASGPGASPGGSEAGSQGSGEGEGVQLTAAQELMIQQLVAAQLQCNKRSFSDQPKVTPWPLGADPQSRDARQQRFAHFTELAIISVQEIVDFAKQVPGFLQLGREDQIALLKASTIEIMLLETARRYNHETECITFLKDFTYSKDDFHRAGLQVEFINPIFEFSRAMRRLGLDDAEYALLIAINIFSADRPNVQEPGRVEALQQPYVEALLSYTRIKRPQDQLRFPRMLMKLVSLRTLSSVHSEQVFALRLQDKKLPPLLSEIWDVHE
Kind of test: LXR agonists, Gal4 luciferase reporter, dose response, counter-screen for ssDAF-12 agonist project, cell-based, luminescence, HEK293, S. stercoralis campaign (AID 720737). The format is functional. As to conditions: read-out: IC50 (the source's name). In general terms: Reporter assays use an easily measured gene product as a stand-in for the process of interest.

The test system of a further test is BJ. Kind of test: cells. The format is functional, cell-based. The conditions noted are these: Homo sapiens.
Another test concerns the target Paired box protein Pax-8 (Homo sapiens, UniProt Q06710). Kind of test: inhibitors of PAX8-driven TPO luciferase reporter, dose response, RMG-I cells, cherry-pick (AID 687027).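 Note: luciferase reporter driven by Pax8 target thyroperoxidase promoter measured by SteadyGlo luminescence.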 The class given is functional, cell-based.
For the next test, the target named is Melanocortin receptor 4 (Homo sapiens, UniProt P32245). Briefly: MC4R antagonist potency on cAMP, dose response, cell-based, TR-FRET, biased antagonists (AID 602298).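 Note: antagonist potency against agonist-stimulated cAMP production.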 The format is functional. A general note: Time-resolved FRET reads energy transfer from a long-lived donor to a nearby acceptor.
Sequence of Melanocortin receptor 4 (P32245 whole entry): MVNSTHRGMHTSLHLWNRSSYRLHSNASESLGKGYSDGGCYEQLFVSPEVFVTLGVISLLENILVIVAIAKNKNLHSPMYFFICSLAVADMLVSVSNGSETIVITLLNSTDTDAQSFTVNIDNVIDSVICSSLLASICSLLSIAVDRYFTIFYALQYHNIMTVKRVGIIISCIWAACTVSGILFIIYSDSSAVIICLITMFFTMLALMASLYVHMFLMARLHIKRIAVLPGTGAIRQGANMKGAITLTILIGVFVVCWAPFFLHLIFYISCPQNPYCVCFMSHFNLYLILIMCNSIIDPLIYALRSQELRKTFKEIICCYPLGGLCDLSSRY

Calls of active or inactive are those of the source.

Sequence of Paired box protein Pax-8 (Q06710 whole entry): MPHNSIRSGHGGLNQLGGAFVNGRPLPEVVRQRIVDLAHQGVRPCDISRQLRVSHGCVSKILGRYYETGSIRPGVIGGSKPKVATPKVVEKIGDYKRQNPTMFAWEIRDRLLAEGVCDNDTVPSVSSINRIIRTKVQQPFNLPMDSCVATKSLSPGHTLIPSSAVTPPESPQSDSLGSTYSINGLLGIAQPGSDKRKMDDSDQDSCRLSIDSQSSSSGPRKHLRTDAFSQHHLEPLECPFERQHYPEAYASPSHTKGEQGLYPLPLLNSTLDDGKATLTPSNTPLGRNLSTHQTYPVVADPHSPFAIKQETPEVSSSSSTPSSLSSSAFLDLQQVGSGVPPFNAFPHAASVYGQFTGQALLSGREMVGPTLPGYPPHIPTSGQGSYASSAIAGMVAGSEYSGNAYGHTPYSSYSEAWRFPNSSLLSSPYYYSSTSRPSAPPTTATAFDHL

For orientation: IC50 means the concentration needed to halve the response being measured. Turning to `O=C(O)CSc1cc(NS(=O)(=O)c2ccc(Cl)cc2)c2ccccc2c1O`, at Hexokinase-1, the IC50 is > 80 µM (inactive).

Consider `Oc1ccccc1/C=C/c1noc(-c2ccccc2O)n1`, for which the EC50 (in “cells”; in test [2]) was > 67.6 µM (inactive) throughout. Also, the IC50 in test [1] is 43.8 µM (active).

Usually AC50 stands for the midpoint of the concentration-response curve, whichever way the signal moves. For the compound `Cc1nn(-c2ccccc2)c(Cl)c1CN(C(=O)CCl)c1ccc(Cl)cc1`, the EC50 in the test with BJ was 2.82 µM (inconclusive). At Paired box protein Pax-8, the AC50 was 3.19 µM (active). Also, the IC50 on Melanocortin receptor 4 was > 64.6 µM (inactive).

Values taken from ChEMBL document CHEMBL1201862, “PubChem BioAssay data set” (2004).
